Experimental data from patent publication US11219607B2, “Methods for suppressing cancer-related cachexia” (Ohio State Innovation Foundation, priority 2013, dated 2022).

How the values were obtained:
Atrogin-1/MAFbx mRNA = assay: qPCR of gastrocnemius muscle, C-26 model: Atrogin-1; assay type: in vivo, CD2F1 mice; settings: C-26 tumor-bearing mice, 15 days after tumor cell injection, tumor-bearing/vehicle 29.4±3.5-fold, mean±S.D.
Procedure: (§1) Total RNA was isolated from homogenized gastrocnemius muscles (n=3/group) with TRIzol reagent (Life Technologies, Carlsbad, Calif.) and then purified using the RNAeasy Mini Kit (Qiagen, Valencia, Calif.). qRT-PCR was performed as described previously (42) by using the Bio-Rad CFX96 Real-Time PCR Detection System with iQ SYBR Green Supermix (Bio-Rad, Hercules, Calif.). RNA-seq library generation and data analysis were performed at The Ohio State University Comprehensive Cancer Center (OSUCCC) Nucleic Acid Shared Resource.
(§2) AR-42 was able to restore expression of Atrogin-1 (2.7±0.7-fold) and MuRF1 (1.1±0.2-fold) mRNA to basal levels […].

[1] = system: gastrocnemius muscles of C-26 tumor-bearing mice; assay: Metabolomic profiling of gastrocnemius muscle, C-26 model; assay type: in vivo, CD2F1 mice; settings: day 17, C-26 tumor-bearing mice
Description: (§3) Gastrocnemius muscles and sera were collected at day 17 post-cell injection from each treatment group (n=8/group). Muscle was submitted to Metabolon, Inc. (Durham, N.C.) for metabolomic analysis of 270 metabolic intermediates via proprietary mass spectrometry platforms. Serum was submitted to Eve Technologies (Alberta, Canada) for analysis of 32 cytokines using a mouse cytokine array (32-plex panel).
With cachexia, skeletal muscles undergo complex metabolic changes in response to tumor/host-derived inflammatory and neuroendocrine stressors (1). Accordingly, we conducted metabolic profiling analysis to investigate the effect of AR-42 on cachexia-induced shifts in metabolic phenotype in skeletal muscle. Tumor-free and C-26 tumor-bearing mice were treated with vehicle or AR-42 as aforementioned, and gastrocnemius muscles were collected at day 17 for metabolomic analysis.

[2] = system: gastrocnemius muscle fibers of C-26 tumor-bearing mice; assay: Morphometric analysis of muscle fiber size, C-26 model; assay type: in vivo, CD2F1 mice; settings: day 15, tumor-bearing/vehicle 1297.6±638.8, tumor-free control 2503.5±917.5, mean±S.D.
Procedure: Ten-μm sections were cut from frozen skeletal muscle samples using a cryostat (Leica) and then stained with H&E. Images were captured using an Olympus BX51 microscope (Olympus America, Inc.) and muscle fiber cross-sectional areas were determined using Olympus CellSens 1.11 software. Measurements were obtained from five different sections of muscle from each of five mice from each group.
The protective effect of AR-42 against muscle wasting was manifested by the abrogation of cachexia-induced reduction in skeletal muscle fiber size. […] The prominent shift in fiber size distribution to smaller cross-sectional area in cachectic muscles of tumor-bearing/vehicle mice was reversed by AR-42 (FIG. 2A, right)

MuRF1 mRNA = assay: qPCR of gastrocnemius muscle, C-26 model: MuRF1; assay type: in vivo, CD2F1 mice; settings: C-26 tumor-bearing mice, 15 days after tumor cell injection, tumor-bearing/vehicle 25.8±3.9-fold, mean±S.D.
Procedure: as §1, §2

[3] = system: global gene expression in muscle of C-26 tumor-bearing mice; assay: RNA-seq of gastrocnemius muscle, C-26 model; assay type: in vivo, CD2F1 mice
Procedure: as §1
Data analysis was conducted by using SAS 9.3 software (SAS, Inc; Cary, N.C.). For the experiments with repeated measures, data were analyzed by mixed effect models, incorporating observational dependencies across each subject. For other experiments involving independent groups, data were analyzed by ANOVA. For the time-to-event experiment (FIG. 2B), the difference in survival functions were compared by log-rank tests. Multiplicities were adjusted by Holm's method to control the overall family-wise error rate at 0.05. RNA-seq data were analyzed by using Ingenuity Pathway Analysis (IPA) software (Ingenuity Systems, Redwood City, Calif.). Only genes with >4-fold change and P<0.05 were selected for pathway analysis. […]
RNA quality was assessed on an Agilent 2100 Bioanalyzer using a Pico RNA chip and the input total RNA amount was assessed using Agilent Qubit RNA assay. […] The resultant libraries were assessed for quantity and quality using Agilent Qubit DNA assay and with PerkinElmer Labchip DNA GX analysis, respectively. All libraries were mixed in equal proportions generating pools of samples that would yield approximately 40 million passed filter reads when sequenced on Illumina HiSeq 2500 sequencer. The raw sequencing data from the Illumina HiSeq CASAVA pipeline were assessed for quality using FastQC, RNASeQC and RSeQC software. […]

LLC tumor-bearing mice = assay: LLC mouse model of cachexia, hindlimb muscle mass; assay type: in vivo; settings: LLC tumor-bearing C57BL/6 mice, 50 mg/kg p.o. every other day, day 6 to day 20
Procedure: In another aspect, subcutaneous tumors were established in male C57BL/6 mice (approximately 6 weeks of age; Harlan) by injection of 0.5×10^6 LLC cells into the right flank. Treatment with AR-42 and vehicle was performed as for the C-26 model beginning 6 days after cell injection. In both models, body weights and food consumption were monitored daily and tumor size was measured no less than every two days. Mice were fasted for 2 hours prior to sacrifice, at which time, hind limb muscles, heart, spleen, epididymal fat, and blood were collected and the weights of the solid tissues were measured. Muscle samples were frozen in liquid nitrogen-chilled 2-methylbutane and then stored at −80° C. until analysis.
(§4) To confirm that the anti-cachectic activity of AR-42 was not specific to the C-26 model, it was also evaluated in the LLC model. C57BL/6 mice bearing subcutaneous LLC tumors were treated with AR-42 (50 mg/kg, p.o., every other day) starting on day 6 after tumor cell injection, and continuing until day 20 when hind limb muscles were harvested at sacrifice.
as §4, with “subcutaneous […]” for “subcutaneous”

TNF = assay: Serum cytokine profiling, C-26 model: TNF; assay type: in vivo, CD2F1 mice; settings: C-26 tumor-bearing mice
Description: as §3
To shed light onto the mechanism by which AR-42 mediated its anti-cachectic effect, sera and gastrocnemius muscle from vehicle- or AR-42-treated tumor-free and C-26 tumor-bearing mice were used for cytokine profiling analysis and whole transcriptome shotgun sequencing (RNA-seq), respectively.

For CC(C)[C@H](C(=O)Nc1ccc(C(=O)NO)cc1)c1ccccc1 [AR-42, (S)—N-hydroxy-4-(3-methyl-2-phenylbutanamido)benzamide], the “Atrogin-1 mRNA level relative to tumor-free/vehicle control” value (Atrogin-1/MAFbx mRNA) was 2.7±0.7 fold, the “cachectic phenotype of free amino acids and amino acid metabolites” value [1] was “reversed” and the “glycogen metabolic intermediates (short-chain malto-oligosaccharides, glucose 1-phosphate)” value [1] was “significantly replenished”. The “intramuscular levels of glucose and key glycolytic intermediates” value ([1]; lowered in cachectic muscle) was “reversed these metabolic changes”, the “2-hydroxybutyrate and ophthalmate levels in muscle” value ([1]; to levels comparable to tumor-free mice) was “dramatically reduced” and the “mean cross-sectional area of muscle fibers” value [2] was 2146.3±923.4 μm^2. The “MuRF1 mRNA level relative to tumor-free/vehicle control” value (MuRF1 mRNA) was 1.1±0.2 fold, the “number of downregulated genes (4-fold or greater), AR-42- versus vehicle-treated tumor-bearing mice” value [3] was 301 genes and the “number of upregulated genes (4-fold or greater), AR-42- versus vehicle-treated tumor-bearing mice” value [3] was 376 genes. For the same compound, the “number of genes with 4-fold or greater differential expression, AR-42- versus vehicle-treated tumor-bearing mice” value ([3]; total) was 677 genes, the “tibialis anterior mass, % of non-cachectic control” value (LLC tumor-bearing mice; vehicle 80.3±4.0%) was 93.4±3.9% and the “gastrocnemius mass, % of non-cachectic control” value (LLC tumor-bearing mice; vehicle 81.7±3.7%) was 92.2±3.5%. For the same compound, the “quadriceps mass, % of non-cachectic control” value (LLC tumor-bearing mice; vehicle 84.4±4.6%) was 93.4±4.8% and the “effect on serum TNF levels” value (TNF) was “no effect”.
